In PubChem BioAssay AID179 (DTP/NCI, 2004):
Where “and” joins values, the source holds several entries; their conditions need not be identical. Equal entries are not always repeated. Calls of active or inactive are those of the source.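 Rule for the calls: active = compounds giving half or more protection of infected cells from virus-caused growth loss, again on retest; inactive = the rest.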 Where a SMILES comes first, the peptide text is derived from it. The star is where a group is joined. Boc = CC(C)(C)OC(=O)*; tBu = CC(C)(C)*

Test system: CEM cells HIV-1 protection, formazan growth assay
Experiment: NCI AIDS Antiviral Assay
Details: for IC50: measured here: growth of uninfected CEM cells
Method in brief: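 Protection of CEM cells against HIV-1 measured as cell growth via soluble formazan read-out, with five concentrations tested on both infected and uninfected cells; failure to protect may reflect toxicity.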

SMILES | EC50 [µM] | IC50 | outcome
c1cc2c(cc1NC1=NCCO1)OCO2 | > 200 | 58.9 µM | –
Cc1ccc2c(c1)[nH]c(=S)n2C=C1C(=O)CC(C)(C)CC1=O | > 200 | > 200 µM | –
CN1CC[C@@H](O)[C@@H](CNC23CC4CC(CC(C4)C2)C3)C1 | – | – | inactive
CCOc1cc[n+](C(=C=[N-])C#N)cc1 | – | – | inactive
COc1ccc(NC(=O)CC/C(CC(=O)c2ccccc2Cl)=N\Nc2nnc(C)n2N)cc1 | > 537 | 191 µM | –
C=CCOc1ccc(/C(N=Nc2ccc([N+](=O)[O-])cc2)=N/NC(=O)c2ccccc2)cc1OC | > 200 | 178 µM | –
O=C(O)CN(CC(=O)O)C1CCCCC1N1CC(=O)OC(=O)C1 (stereo unspecified) | > 200 | 18.2 µM | –
Cc1ccc(S(=O)(=O)n2oc(=O)c(-c3ccccc3)c2N)cc1 | > 200 | 55 µM | –
O=CCCCCCOCc1ccccc1 | > 200 | 3.47 µM | –
CC1CC(=O)Nc2ccccc2N1 (stereo unspecified) | > 200 | > 200 µM | –
O=C(Cn1c(-c2ccccc2)cc2ccccc21)N1CCOCC1 | > 200 | > 200 µM | –
CCOP(=O)(OCC)/C(=C/n1c(=S)[nH]c2ccccc21)C(=O)OC | > 200 | > 200 µM | –
N#CCN(Cc1ccccc1)[C@@H]1CCC[C@]1(O)C#Cc1ccc2c(c1)OCO2 | > 200 | 20.4 µM | –
CS(=O)(=O)C(=Cc1ccccc1Cl)S(C)(=O)=O | – | – | inactive
CC1(C)C(=O)/C=C\C(=O)C(C)(C)C2=CC=C(O2)C(C)(C)C(=O)C(Br)C(Br)C(=O)C(C)(C)C2=CC=C1O2 (stereo unspecified) | – | – | inactive
CC(=O)OC1CCC2(C)C(=CCC3C2CCC2(C)C3CC3N(c4ccccc4)C32C(C)=O)C1 (stereo unspecified) | 6.46 | 20 µM | –
COC(=O)Cn1c(=O)oc2nc(-c3ccccc3)cc(C(F)(F)F)c21 | > 200 | 129 µM | –
CN(C)Cc1cc(/C=C/C(=O)c2ccc(Cl)c(Cl)c2)cc(CN(C)C)c1O | > 151 | 6.31 µM | –
CN(C)CCCOC(=O)C1C[C@@H](O)CN1C(=O)c1ccc2c(c1)OCO2 (stereo partly specified) | > 200 | > 200 µM | –
COc1cc([N+](=O)[O-])c(S(=O)(=O)O)cc1NS(=O)(=O)c1ccc(C)cc1 | > 200 | > 200 µM | –
CCOC(=O)/C(=C\c1ccc(C(=O)OC)cc1)[Se]c1ccccc1 | > 66.1 | 61.7 µM | –
CCCCCCCCCCCCOC(=N)N1CCOCC1 | > 91.2 | 4.47 µM | –
Cn1c(=O)oc2cc(C(=O)CSC(=S)N3CCCCCC3)ccc21 | > 200 | 135 µM | –

SMILES | EC50 [µM] | IC50 | outcome
CC(=O)OCC1OC(n2c(-c3ccccc3)cc(-c3ccco3)c(C#N)c2=O)C(OC(C)=O)C(OC(C)=O)C1OC(C)=O (stereo unspecified) | > 17 | > 17 µM and 12.6 µM | –
O=c1oc2ccccc2cc1-c1nc2ccccc2c(=O)[nH]1 | > 100 | > 100 µM | –
O=[N+]([O-])c1nccn1CCC[n+]1ccc2ccccc2c1 | > 100 | 74.1 µM | –
OCc1cc2c(ccc3sc4ccc5sc6ccc7ncccc7c6c5c4c32)s1 | > 200 | 11.2 µM | –
CNc1c(Cl)cccc1S(=O)(=O)c1ccccc1[N+](=O)[O-] | 3.31 | > 200 µM | –
Nc1nc2c(ncn2C2C=CC(CO)CC2)c(=O)[nH]1 (stereo unspecified) | > 200 | > 200 µM | –
Cc1ccc2nc(NC(=O)C(=O)C(C#N)c3nc4ccccc4s3)sc2c1 (stereo unspecified) | > 66.1 | > 66.1 µM | –
c1ccc2sc(SCN3CCN(CSc4nc5ccccc5s4)CC3)nc2c1 | > 1.62 | > 1.62 µM | –
NC1=NN(O)C2=CC([N+](=O)[O-])C=CC2=N1 (stereo unspecified) | > 25.1 | 20.4 µM | –
C#CC1(O)C(CO)OC(n2ccc(=O)[nH]c2=O)C1O[Si](C)(C)C(C)(C)C (stereo unspecified) | > 200 | 27.5 µM | –
COc1ccc2c(ccc3c(COC(=O)NC(C)C)c(COC(=O)NC(C)C)n(C)c32)c1 | > 200 | 0.112 µM | –
O=c1[nH]c2c3ccccc3ccc2c2cc3c(cc12)OCO3 | – | – | inactive
COc1ccc(CCc2ncc[nH]2)cc1OC | > 617 | > 617 µM | –
Cc1ccc(N2C=Nn3c(nc4sc5c(c4c3=O)CCCC5)C2)cc1 | 25.1 | 42.7 µM | –
Cc1c(/C=N/NC(=O)c2ccccc2O)c(=O)n(-c2ccccc2)n1C | > 200 | 69.2 µM | –
C/C(CCn1[nH]c(=O)ccc1=O)=N\NC(=O)C(N)=O | > 676 | > 676 µM | –
N=S(c1ccccc1)c1ccccc1[N+](=O)[O-] (stereo unspecified) | > 158 | 1.7 µM | –
CC(NS(=O)(=O)c1ccc([N+](=O)[O-])cc1)C(=O)O (stereo unspecified) | – | – | inactive
O=C(Cc1nc2ccccc2s1)Nc1cccc(C(F)(F)F)c1 | > 21.4 | 17.4 µM | –
O=C(O)CCSSCCC(=O)O | > 200 | > 200 µM | –
CC(=O)C(=C(I)I)c1ccccc1 | – | – | inactive
O=C(/C=C/c1cccs1)c1ccccc1Cl | > 200 | 11.2 µM | –
O=c1c2ccccc2n2nnc3ccc(NCCCNCCNCCCNc4ccc5nnn6c7ccccc7c(=O)c4c56)c1c32 | > 0.0501 | 0.0347 µM | –

SMILES | EC50 [µM] | IC50 | outcome
C=C1C=CN(C(C)=O)C(OC(C)=O)C1SC(C)(C)C (stereo unspecified) | > 200 | 57.5 µM | –
COCCNC(=O)C1C(=O)C(=O)N(CCOC)C1=O (stereo unspecified) | – | – | inactive
CCCCCCCCC(C)CCCCCCCCC(=O)OCC(COP(=O)([O-])OCC[N+](C)(C)C)OC(=O)CCCCCCCCC(C)CCCCCCCC (stereo unspecified) | – | – | inactive
COC(=O)N1CC2CC(=O)OCC2[C@@H]1CO (stereo partly specified) | > 724 | > 724 µM | –
CCOC(=O)/C(C#N)=C/c1ccc(CO)o1 | > 200 | > 200 µM | –
c1ccc2c(c1)CCN2CCc1c[nH]c2ccccc12 | > 200 | 178 µM | –
CS(=O)(=O)OCCn1cnc2nc(NC(=O)c3ccccc3)[nH]c(=O)c21 | > 182 | > 182 µM | –
COc1ccc(-c2c(-c3ccccc3)c(C)nc3nc(SC)nc(SC)c23)cc1OC | > 200 | 11.5 µM | –
COC(=O)/C=C/c1ccc(OP(=O)(O)O)c(OC)c1 | > 200 | > 200 µM | –
CCOC(=O)CSc1[nH]c2nc(C)nc(Cl)c2c1C#N | > 200 | > 100 µM | –
ClC1(c2ccccc2)c2ccc(Br)cc2-c2cc(Br)ccc21 | > 200 | 5.75 µM | –
CCN(CC)CC(=O)Nc1cc(Cl)ccc1OC | > 200 | 178 µM | –
COc1cc2c3c(c1)nc(C)n3C(=O)C(C)S2 (stereo unspecified) | > 200 | 50.1 µM | –
O=C(Nc1c(NCC(O)C(O)C(O)CO)[nH]c(=O)[nH]c1=O)c1ccc(S(=O)(=O)F)cc1 (stereo unspecified) | > 200 | 117 µM | –
COC(=O)C1(Cc2ccccc2C)Cc2ccc(C)cc2C1=O (stereo unspecified) | > 200 | 57.5 µM | –
COc1ccc(/C=C2/N=C(c3ccccc3)OC2=O)cc1OC | > 23.4 | > 23.4 µM | –
COc1ccc2c(c[n+](C)c3c4cc5c(cc4ccc23)OCO5)c1OC | > 3.24 | 0.372 µM | –
C[Si](C)(C)c1ccc(CC2(Cc3ccc([Si](C)(C)C)cc3)CCNC2)cc1 | > 5.01 | > 5.01 µM | –
Cc1ccc(S(=O)(=O)NC(CSSCC(NS(=O)(=O)c2ccc(C)cc2)C(=O)OC(C)(C)C)C(=O)OC(C)(C)C)cc1 (stereo unspecified) | > 200 | > 200 µM | –
CSC1=N/C(=C\c2ccco2)C(=O)N1CN1CCCCC1 | > 200 | 102 µM | –
O=C(CCc1ccc(O)cc1)NCCCNC(=O)CCc1ccc(O)cc1 | > 200 | > 200 µM | –
Cc1nc2c(nc1C)C(=O)C=CC2=O | > 200 | 11.5 µM | –
Nc1ccc([As](=O)(O)O)cc1C(=O)O | > 200 | > 200 µM | –

SMILES | EC50 [µM] | IC50 | outcome
CC(NC1=NCCO1)c1cccc([N+](=O)[O-])c1 (stereo unspecified) | > 200 | > 200 µM | –
CCOC(=O)C(=O)Nc1c(C(C)C)cccc1C(C)C | – | – | inactive
C[N+]1(C)CCC(C#N)(c2ccccc2)CC1 | > 724 | – | –
CCOc1ccc2nc3nc(=O)[nH]c(C)c3c(NC(C)(CO)CO)c2c1 | > 200 | > 200 µM | –
c1csc(-c2nc3sc(-c4cccs4)nc3s2)c1 | – | – | inactive
CC(C)CC1C(=O)NCCC(NC(=O)C(N)Cc2ccc(O)cc2)C(=O)NC(Cc2ccccc2)C(=O)NC(Cc2ccccc2)NC1=O (stereo unspecified) | > 100 | > 100 µM | –
NC(=O)C(c1ccccc1)N1CCOCC1 (stereo unspecified) | > 200 | 1.02 µM | –
COC12OC3(C4OC41)C(C(=O)O[C@H]3CO[Si](C)(C)C(C)(C)C)C2S(=O)(=O)c1ccccc1 (stereo partly specified) | > 200 | 129 µM | –
CC(=O)Nc1ccc(C(=O)OCC2OC(n3cc(C)c(=O)[nH]c3=O)CC2N=[N+]=[N-])cc1 (stereo unspecified) | 0.148 | 38.9 µM | –
N#Cc1c(O)c(N=Nc2ccccc2F)c(=O)n2c1[nH]c1ccccc12 | > 200 | 18.6 µM | –
C=C(CN)CO[Si](C)(C)C(C)(C)C | > 200 | 110 µM | –
CC(=O)NC1C(OCc2ccccc2)OC(COC(=O)CCCCCCCCCCNc2ccc([N+](=O)[O-])c3[nH]c4ccccc4c(=O)c23)C(O)C1OC(C)C(=O)NC(C)C(=O)NC(CCC(N)=O)C(=O)OCc1ccccc1 (stereo unspecified) | > 166 | > 166 µM | –
CN(C)c1ccc(C(=C(c2ccc(N(C)C)cc2)c2ccc(N(C)C)cc2)c2ccc(N(C)C)cc2)cc1 | > 24.5 | 1 µM | –
CC(C1=C(O)c2ccccc2C(=O)C1=O)C1=C(O)c2ccccc2C(=O)C1=O | > 200 | 50.1 µM | –
CC(OC(C)(C)C)C(NC(=O)C(N)CCCCNC(=O)OC(C)(C)C)C(=O)NC(Cc1ccccc1)C(=O)O (stereo unspecified) (H-Lys(Boc)-Thr(tBu)-Phe-OH; configuration not given here) | > 200 | > 200 µM | –
CC1=N/C(=C\c2ccc(-c3ccccc3)cc2)C(=O)O1 | > 20 | > 20 µM | –
CC(CN(C)C)OCCn1c2c(c3ccccc31)CCCC2 (stereo unspecified) | > 200 | 13.5 µM | –
CC(=O)C(CN1C(=O)c2ccccc2C1=O)C(C)=O | > 38.9 | > 38.9 µM | –
CCCN(CCCN)/[N+]([O-])=N\O | > 8910 | 1580 µM | –
COc1ccccc1Nc1nc(N)nc(N)c1N=O | > 200 | > 200 µM | –
